Source: PubChem BioAssay AID624432 (The Scripps Research Institute Molecular Screening Center, 2012)
Active and inactive are the calls of the source.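 The calls were made as follows: active = compounds whose fitted IC50 is below 25 µM; inactive = the rest.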

Target: Serine/threonine-protein phosphatase 5 (Homo sapiens) (UniProt P53041)
Assay: IC50 of PP5 catalytic subunit inhibitors – biochemical, fluorescence, powder samples, fifth round, dose response (AID 624432)
Settings: purified PP5c, OMFP dephosphorylation

Sequence of Serine/threonine-protein phosphatase 5 (Homo sapiens) (P53041 whole entry, looked up): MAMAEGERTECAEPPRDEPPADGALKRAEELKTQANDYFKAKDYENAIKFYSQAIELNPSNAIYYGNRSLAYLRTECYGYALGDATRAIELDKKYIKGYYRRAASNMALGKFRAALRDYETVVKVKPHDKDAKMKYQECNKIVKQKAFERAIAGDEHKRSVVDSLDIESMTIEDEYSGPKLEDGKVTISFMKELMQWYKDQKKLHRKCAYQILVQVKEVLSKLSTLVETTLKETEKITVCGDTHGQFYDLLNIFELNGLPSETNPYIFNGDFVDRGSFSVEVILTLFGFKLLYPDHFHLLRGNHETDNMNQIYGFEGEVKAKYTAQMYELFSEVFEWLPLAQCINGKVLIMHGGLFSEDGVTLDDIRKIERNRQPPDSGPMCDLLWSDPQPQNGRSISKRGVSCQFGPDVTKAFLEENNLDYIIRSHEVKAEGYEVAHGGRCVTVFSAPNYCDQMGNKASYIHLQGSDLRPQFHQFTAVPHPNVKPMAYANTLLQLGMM

Row | SMILES | IC50
1 | Cc1cccc(C)c1-c1n[nH]nc1C(=O)O | inactive
2 | O=C(O)c1n[nH]nc1-c1ccccc1C(F)(F)F | > 1000 µM (inactive)
